Assay results as given in ChEMBL document CHEMBL1909046, “DrugMatrix in vitro pharmacology data”.

Experiments:
[1] = target: Tyrosine-protein kinase Lck (Homo sapiens, UniProt P06239); assay: DRUGMATRIX: Protein Tyrosine Kinase, LCK enzyme inhibition (substrate: Poly(Glu:Tyr)); format: cell-based, Insect cells; details: insect cells; Not Active = under 50% inhibition at 10 µM
[2] = target: Tyrosine-protein kinase Fyn (Homo sapiens, UniProt P06241); assay: biochemical; format: cell-based, Insect cells; details: insect cells;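 note: enzymatic inhibition of Fyn kinase activity measured with Poly(Glu:Tyr) as the phosphorylation substrate; in other assays of this panel Not Active means under 50% inhibition at 10 µM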
Tyrosine-protein kinase Fyn, sequence (P06241 whole entry): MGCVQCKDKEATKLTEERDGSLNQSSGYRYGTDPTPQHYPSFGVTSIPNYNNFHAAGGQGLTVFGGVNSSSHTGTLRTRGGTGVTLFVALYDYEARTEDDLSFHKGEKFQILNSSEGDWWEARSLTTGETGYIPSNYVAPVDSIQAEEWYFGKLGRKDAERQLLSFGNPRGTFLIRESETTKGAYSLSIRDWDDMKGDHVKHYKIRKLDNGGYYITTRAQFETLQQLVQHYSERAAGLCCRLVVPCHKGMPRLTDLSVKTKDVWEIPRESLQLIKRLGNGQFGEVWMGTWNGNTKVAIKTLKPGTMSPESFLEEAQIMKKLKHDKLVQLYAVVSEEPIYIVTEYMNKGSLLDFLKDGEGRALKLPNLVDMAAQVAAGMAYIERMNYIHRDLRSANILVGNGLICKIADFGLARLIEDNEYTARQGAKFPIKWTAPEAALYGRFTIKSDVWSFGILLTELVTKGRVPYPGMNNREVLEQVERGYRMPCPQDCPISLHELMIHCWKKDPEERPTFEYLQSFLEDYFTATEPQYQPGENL

[3] = target: T1, Angiotensin-converting enzyme (Oryctolagus cuniculus, UniProt P12822); format: tissue-based, Lung;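 note: enzymatic inhibition of angiotensin-converting enzyme measured with FAPGG as the substrate; in other assays of this panel Not Active means under 50% inhibition at 10 µM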
T1 sequence (P12822 whole entry): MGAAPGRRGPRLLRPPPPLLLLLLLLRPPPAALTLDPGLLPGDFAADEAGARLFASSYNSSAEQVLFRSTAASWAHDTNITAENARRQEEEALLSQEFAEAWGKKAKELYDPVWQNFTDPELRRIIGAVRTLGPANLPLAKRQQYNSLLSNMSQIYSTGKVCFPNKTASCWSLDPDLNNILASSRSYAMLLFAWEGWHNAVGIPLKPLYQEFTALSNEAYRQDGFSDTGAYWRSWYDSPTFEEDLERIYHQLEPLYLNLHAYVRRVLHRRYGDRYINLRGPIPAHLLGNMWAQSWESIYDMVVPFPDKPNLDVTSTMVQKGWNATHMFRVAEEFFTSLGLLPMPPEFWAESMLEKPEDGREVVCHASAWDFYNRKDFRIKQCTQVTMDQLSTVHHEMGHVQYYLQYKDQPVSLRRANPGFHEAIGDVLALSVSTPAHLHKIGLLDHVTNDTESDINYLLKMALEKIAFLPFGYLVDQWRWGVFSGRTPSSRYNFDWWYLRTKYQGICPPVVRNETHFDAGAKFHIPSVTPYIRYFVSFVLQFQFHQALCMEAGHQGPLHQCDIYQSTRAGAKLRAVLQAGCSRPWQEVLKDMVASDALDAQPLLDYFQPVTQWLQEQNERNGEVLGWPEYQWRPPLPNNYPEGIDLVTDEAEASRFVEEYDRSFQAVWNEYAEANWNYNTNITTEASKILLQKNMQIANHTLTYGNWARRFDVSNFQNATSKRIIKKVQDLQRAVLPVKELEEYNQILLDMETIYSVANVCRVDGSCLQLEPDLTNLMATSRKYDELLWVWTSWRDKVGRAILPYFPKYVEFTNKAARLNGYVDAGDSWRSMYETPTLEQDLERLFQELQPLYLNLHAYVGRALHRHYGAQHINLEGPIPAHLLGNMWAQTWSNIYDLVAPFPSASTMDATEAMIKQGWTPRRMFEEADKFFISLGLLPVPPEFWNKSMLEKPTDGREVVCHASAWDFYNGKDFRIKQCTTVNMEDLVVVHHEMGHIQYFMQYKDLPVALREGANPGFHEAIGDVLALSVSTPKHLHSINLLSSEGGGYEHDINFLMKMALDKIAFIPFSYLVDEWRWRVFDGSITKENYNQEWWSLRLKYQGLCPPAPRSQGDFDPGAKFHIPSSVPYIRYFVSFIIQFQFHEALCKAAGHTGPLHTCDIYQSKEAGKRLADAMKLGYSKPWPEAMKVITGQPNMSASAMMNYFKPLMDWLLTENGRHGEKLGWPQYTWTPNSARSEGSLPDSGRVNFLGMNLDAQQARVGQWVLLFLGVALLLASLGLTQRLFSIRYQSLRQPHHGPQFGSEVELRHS

[4] = DRUGMATRIX: Phosphodiesterase PDE3 enzyme inhibition (substrate: [3H]cAMP + cAMP); format: tissue-based, Homo sapiens; details: platelet; Not Active = under 50% inhibition at 10 µM
[5] = target: T2, C-X-C chemokine receptor type 2 (Homo sapiens, UniProt P25025); format: cell membranes, Membrane; details: cho-k1; note: in other assays of this panel Not Active means under 50% inhibition at 10 µM
T2 sequence (P25025 whole entry): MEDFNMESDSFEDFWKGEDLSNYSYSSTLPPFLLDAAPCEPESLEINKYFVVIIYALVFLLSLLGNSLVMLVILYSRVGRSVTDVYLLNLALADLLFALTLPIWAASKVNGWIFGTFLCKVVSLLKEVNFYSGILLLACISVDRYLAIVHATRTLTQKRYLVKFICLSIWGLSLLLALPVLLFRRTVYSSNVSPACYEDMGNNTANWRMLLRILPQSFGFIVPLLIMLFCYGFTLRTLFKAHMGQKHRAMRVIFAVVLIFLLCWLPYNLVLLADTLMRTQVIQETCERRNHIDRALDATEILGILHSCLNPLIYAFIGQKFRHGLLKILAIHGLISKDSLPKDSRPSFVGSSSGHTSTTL

[6] = target: Vascular endothelial growth factor receptor 1 (Homo sapiens, UniProt P17948); assay: biochemical; format: cell-based, HUVEC; details: huvec; note: in other assays of this panel Not Active means under 50% inhibition at 10 µM
Vascular endothelial growth factor receptor 1, sequence (P17948 whole entry): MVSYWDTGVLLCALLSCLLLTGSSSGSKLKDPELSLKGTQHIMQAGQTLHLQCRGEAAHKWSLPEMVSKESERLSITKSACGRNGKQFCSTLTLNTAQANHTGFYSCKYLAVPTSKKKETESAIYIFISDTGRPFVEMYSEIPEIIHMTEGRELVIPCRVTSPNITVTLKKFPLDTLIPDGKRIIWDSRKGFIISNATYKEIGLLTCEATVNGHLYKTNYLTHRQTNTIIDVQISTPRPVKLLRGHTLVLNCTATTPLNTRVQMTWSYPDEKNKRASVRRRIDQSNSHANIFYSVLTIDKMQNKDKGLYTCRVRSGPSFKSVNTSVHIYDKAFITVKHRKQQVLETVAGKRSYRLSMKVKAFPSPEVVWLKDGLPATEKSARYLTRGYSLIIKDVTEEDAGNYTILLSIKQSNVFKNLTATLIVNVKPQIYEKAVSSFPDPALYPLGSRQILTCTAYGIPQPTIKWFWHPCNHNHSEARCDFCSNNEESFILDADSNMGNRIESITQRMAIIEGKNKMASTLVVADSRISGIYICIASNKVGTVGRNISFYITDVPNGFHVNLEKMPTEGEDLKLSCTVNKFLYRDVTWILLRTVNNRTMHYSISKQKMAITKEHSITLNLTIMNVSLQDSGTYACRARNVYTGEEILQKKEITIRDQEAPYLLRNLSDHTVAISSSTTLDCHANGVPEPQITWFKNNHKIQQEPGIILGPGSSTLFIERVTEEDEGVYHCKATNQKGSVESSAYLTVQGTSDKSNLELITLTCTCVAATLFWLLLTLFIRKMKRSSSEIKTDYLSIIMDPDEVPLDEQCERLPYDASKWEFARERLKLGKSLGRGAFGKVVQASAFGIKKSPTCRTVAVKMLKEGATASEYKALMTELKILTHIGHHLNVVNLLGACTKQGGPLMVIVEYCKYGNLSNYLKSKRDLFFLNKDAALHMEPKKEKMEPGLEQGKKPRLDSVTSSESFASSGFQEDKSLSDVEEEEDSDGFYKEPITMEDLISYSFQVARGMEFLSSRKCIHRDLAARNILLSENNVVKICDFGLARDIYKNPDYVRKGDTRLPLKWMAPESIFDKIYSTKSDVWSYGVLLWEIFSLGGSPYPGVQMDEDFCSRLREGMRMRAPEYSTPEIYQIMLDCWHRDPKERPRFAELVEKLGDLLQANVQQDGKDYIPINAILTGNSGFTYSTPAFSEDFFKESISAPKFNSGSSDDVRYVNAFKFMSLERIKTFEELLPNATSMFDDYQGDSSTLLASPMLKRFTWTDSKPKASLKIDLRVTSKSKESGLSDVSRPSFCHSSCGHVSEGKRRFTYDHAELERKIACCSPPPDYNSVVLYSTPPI

Tyrosine-protein kinase Lck, sequence (P06239 whole entry): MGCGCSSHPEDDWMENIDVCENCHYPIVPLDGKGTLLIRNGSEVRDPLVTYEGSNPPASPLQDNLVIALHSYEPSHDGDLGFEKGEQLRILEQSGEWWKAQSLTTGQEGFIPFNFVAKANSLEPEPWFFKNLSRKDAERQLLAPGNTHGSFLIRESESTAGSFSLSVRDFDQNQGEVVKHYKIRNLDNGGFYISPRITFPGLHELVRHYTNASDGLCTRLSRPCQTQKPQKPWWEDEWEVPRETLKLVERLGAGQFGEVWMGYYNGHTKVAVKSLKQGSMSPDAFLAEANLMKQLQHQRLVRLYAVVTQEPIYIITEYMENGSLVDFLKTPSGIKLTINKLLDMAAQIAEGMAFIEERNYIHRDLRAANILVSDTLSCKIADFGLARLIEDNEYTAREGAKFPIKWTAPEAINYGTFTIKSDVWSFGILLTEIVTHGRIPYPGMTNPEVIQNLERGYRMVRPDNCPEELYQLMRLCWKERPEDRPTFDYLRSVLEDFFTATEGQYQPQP

O=C(c1ccccc1C(F)(F)F)N1CCC(Cc2ccccc2)CC1
Not Active: IC50 [1] | IC50 [2] | IC50 [3] | IC50 [4] | Ki [4] | IC50 [5] | IC50 [6]

O=C/C=C/c1ccccc1
Not Active: IC50 [1] | IC50 [2] | IC50 [3] | IC50 [4] | Ki [4] | IC50 [5] | IC50 [6]

Nc1ccc2c3c(cccc13)C(=O)NC2=O
Not Active: IC50 [1] | IC50 [2] | IC50 [3] | IC50 [4] | Ki [4] | IC50 [5] | IC50 [6]

COc1ccc(C(=O)N2CCCC2=O)cc1
Not Active: IC50 [1] | IC50 [2] | IC50 [3] | IC50 [4] | Ki [4] | IC50 [5] | IC50 [6]

O=c1cnn([C@@H]2O[C@H](CO)[C@@H](O)[C@H]2O)c(=O)[nH]1 [6-AZAURIDINE]
Not Active: IC50 [1] | IC50 [2] | IC50 [3] | IC50 [4] | Ki [4] | IC50 [5] | IC50 [6]

CC[C@H](C)[C@H]1O[C@]2(C=C[C@@H]1C)C[C@@H]1C[C@@H](C/C=C(\C)[C@@H](O[C@H]3C[C@H](OC)[C@@H](O[C@H]4C[C@H](OC)[C@@H](O)[C@H](C)O4)[C@H](C)O3)[C@@H](C)/C=C/C=C3\CO[C@@H]4[C@H](O)C(C)=C[C@@H](C(=O)O1)[C@]34O)O2.CO[C@H]1C[C@H](O[C@H]2[C@H](C)O[C@@H](O[C@@H]3/C(C)=C/C[C@@H]4C[C@@H](C[C@]5(C=C[C@H](C)[C@@H](C(C)C)O5)O4)OC(=O)[C@@H]4C=C(C)[C@@H](O)[C@H]5OC/C(=C\C=C\[C@@H]3C)[C@]54O)C[C@@H]2OC)O[C@@H](C)[C@@H]1O [ABAMECTIN]
Not Active: IC50 [1] | IC50 [2] | IC50 [3] | IC50 [4] | Ki [4] | IC50 [5] | IC50 [6]

NCCCC(O)(P(=O)(O)O)P(=O)(O)O [ALENDRONIC ACID]
Not Active: IC50 [1] | IC50 [2] | IC50 [3] | IC50 [4] | Ki [4] | IC50 [5] | IC50 [6]

Cc1nnc2n1-c1ccc(Cl)cc1C(c1ccccc1)=NC2 [ALPRAZOLAM]
Not Active: IC50 [1] | IC50 [2] | IC50 [3] | IC50 [4] | Ki [4] | IC50 [5] | IC50 [6]

Cn1c(=O)c2[nH]cnc2n(C)c1=O.Cn1c(=O)c2[nH]cnc2n(C)c1=O.NCCN [AMINOPHYLLINE]
Not Active: IC50 [1] | IC50 [2] | IC50 [3] | IC50 [4] | Ki [4] | IC50 [5] | IC50 [6]

CCC1(CCC(C)C)C(=O)NC(=O)NC1=O [AMOBARBITAL]
Not Active: IC50 [1] | IC50 [2] | IC50 [3] | IC50 [4] | Ki [4] | IC50 [5] | IC50 [6]

CC1(C)S[C@@H]2[C@H](NC(=O)[C@H](N)c3ccccc3)C(=O)N2[C@H]1C(=O)O [AMPICILLIN]
Not Active: IC50 [1] | IC50 [2] | IC50 [3] | IC50 [4] | Ki [4] | IC50 [5] | IC50 [6]

COc1ccc(C2C(=O)c3ccccc3C2=O)cc1 [ANISINDIONE]
Not Active: IC50 [1] | IC50 [2] | IC50 [3] | IC50 [4] | Ki [4] | IC50 [5] | IC50 [6]

O=C1O[C@H]([C@@H](O)CO)C(O)=C1O [ASCORBIC ACID]
Not Active: IC50 [1] | IC50 [2] | IC50 [3] | IC50 [4] | Ki [4] | IC50 [5] | IC50 [6]

CN1[C@@H]2CC[C@H]1C[C@@H](OC(=O)C(CO)c1ccccc1)C2 (some centres undefined) [ATROPINE]
Not Active: IC50 [1] | IC50 [2] | IC50 [3] | IC50 [4] | Ki [4] | IC50 [5] | IC50 [6]

CC(C(=O)O)c1ccc2oc(-c3ccc(Cl)cc3)nc2c1 (centres undefined) [BENOXAPROFEN]
Not Active: IC50 [1] | IC50 [2] | IC50 [3] | IC50 [4] | Ki [4] | IC50 [5] | IC50 [6]

COc1ccc2cc3[n+](cc2c1OC)CCc1cc2c(cc1-3)OCO2.[Cl-] [BERBERINE CHLORIDE]
Not Active: IC50 [1] | IC50 [2] | IC50 [3] | IC50 [4] | Ki [4] | IC50 [5] | IC50 [6]

O=C(O)CCNC(=O)c1ccccc1 [BETAMIPRON]
Not Active: IC50 [1] | IC50 [2] | IC50 [3] | IC50 [4] | Ki [4] | IC50 [5] | IC50 [6]

CC(=O)Oc1ccc(C(c2ccc(OC(C)=O)cc2)c2ccccn2)cc1 [BISACODYL]
Not Active: IC50 [1] | IC50 [2] | IC50 [3] | IC50 [4] | Ki [4] | IC50 [5] | IC50 [6]

Cc1cc2c(OCC(CNC(C)(C)C)OC(=O)c3ccccc3)cccc2[nH]1 (centres undefined) [BOPINDOLOL]
Not Active: IC50 [1] | IC50 [2] | IC50 [3] | IC50 [4] | Ki [4] | IC50 [5] | IC50 [6]

Brc1c(NC2=NCCN2)ccc2nccnc12 [BRIMONIDINE]
Not Active: IC50 [1] | IC50 [2] | IC50 [3] | IC50 [4] | Ki [4] | IC50 [5] | IC50 [6]

CN(C)[C@@H]1C(O)=C(C(N)=O)C(=O)[C@@]2(O)C(O)=C3C(=O)c4c(O)ccc(Cl)c4[C@@](C)(O)[C@H]3C[C@@H]12 [CHLORTETRACYCLINE]
Not Active: IC50 [1] | IC50 [2] | IC50 [3] | IC50 [4] | Ki [4] | IC50 [5] | IC50 [6]

CN/C(=N\CCSCc1nc[nH]c1C)NC#N [CIMETIDINE]
Not Active: IC50 [1] | IC50 [2] | IC50 [3] | IC50 [4] | Ki [4] | IC50 [5] | IC50 [6]

COc1cc(N)c(Cl)cc1C(=O)NC1CCN(CCCOc2ccc(F)cc2)CC1OC (centres undefined) [CISAPRIDE]
Not Active: IC50 [1] | IC50 [2] | IC50 [3] | IC50 [4] | Ki [4] | IC50 [5] | IC50 [6]

CCC(=O)O[C@]1(C(=O)CCl)[C@@H](C)C[C@H]2[C@@H]3CCC4=CC(=O)C=C[C@]4(C)[C@@]3(F)[C@@H](O)C[C@@]21C [CLOBETASOL PROPIONATE]
Not Active: IC50 [1] | IC50 [2] | IC50 [3] | IC50 [4] | Ki [4] | IC50 [5] | IC50 [6]

O=c1cc(N2CCOCC2)oc2c(-c3ccccc3)cccc12 [LY-294002]
Not Active: IC50 [2] | IC50 [3] | IC50 [4] | Ki [4] | IC50 [5] | IC50 [6]
